Data published in PubChem BioAssay (NCI).
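All cell lines were grown in 96-well plates and treated with compound for 48 hours. TGI marks complete inhibition of growth.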

How the values were obtained:
Assay in all cases: DTP human tumour cell line panel, 48 h
[1] = test system: SR leukemia
[2] = test system: HS 578T breast
[3] = test system: SW-620 colon
[4] = test system: SF-539 CNS
[5] = test system: KM12 colon
[6] = test system: CAKI-1 renal
[7] = test system: OVCAR-3 ovarian
[8] = test system: UACC-62 melanoma
[9] = test system: SK-MEL-28 melanoma
[10] = test system: MDA-MB-231 breast
[11] = test system: SN12C renal
[12] = test system: HOP-92 NSCLC
[13] = test system: MOLT-4 leukemia
[14] = test system: EKVX NSCLC
[15] = test system: SF-295 CNS
[16] = test system: NCI-H23 lung
[17] = test system: NCI-H460 lung
[18] = test system: COLO 205 colon
[19] = test system: HOP-62 NSCLC
[20] = test system: MDA-MB-435
[21] = test system: A549 NSCLC
[22] = test system: RPMI-8226 leukemia
[23] = test system: OVCAR-4 ovarian
[24] = test system: BT-549 breast
[25] = test system: K-562 leukemia
[26] = test system: ACHN renal
[27] = test system: HCC-2998 colon
[28] = test system: MCF7 breast
[29] = test system: LOX IMVI melanoma
[30] = test system: NCI-H226 lung
[31] = test system: UO-31 renal
[32] = test system: CCRF-CEM leukemia
[33] = test system: OVCAR-5 ovarian
[34] = test system: NCI-H522 lung
[35] = test system: RXF 393 renal
[36] = test system: MDA-N
[37] = test system: DU-145 prostate
[38] = test system: HCT-116 colon
[39] = test system: HL-60(TB) leukemia
[40] = test system: 786-0 renal
[41] = test system: M14 melanoma
[42] = test system: OVCAR-8 ovarian
[43] = test system: TK-10 renal
[44] = test system: SNB-75 CNS
[45] = test system: SK-MEL-5 melanoma
[46] = test system: SNB-19 CNS
[47] = test system: MALME-3M melanoma
[48] = test system: PC-3 prostate
[49] = test system: UACC-257 melanoma
[50] = test system: NCI/ADR-RES ovarian
[51] = test system: A498 renal
[52] = test system: HCT-15 colon
[53] = test system: SF-268 CNS
[54] = test system: SK-OV-3 ovarian
[55] = test system: U251 CNS
[56] = test system: IGROV1 ovarian
[57] = test system: SK-MEL-2 melanoma
[58] = test system: HT29 colon
[59] = test system: T-47D breast

COC(=O)/C=C1\C(=O)N(C(C)=O)c2ccc(Br)cc21
TGI [1]: 13.5 µM
TGI [2]: 36.8 µM
TGI [3]: 25.9 µM
TGI [4]: 9.65 µM
TGI [5]: 28.6 µM
TGI [6]: > 47 µM
TGI [7]: 15.7 µM
TGI [8]: 25.3 µM
TGI [9]: 28.6 µM
TGI [10]: 28.2 µM
TGI [11]: 18.3 µM
TGI [12]: 29.5 µM
TGI [13]: 10 µM
TGI [14]: 32.1 µM
TGI [15]: 31.6 µM
TGI [16]: 32.4 µM
TGI [17]: 30.4 µM
TGI [18]: 27.8 µM
TGI [19]: 25.9 µM
TGI [20]: 22 µM
TGI [21]: 36 µM
TGI [22]: 6.95 µM
TGI [23]: 25.9 µM
TGI [24]: 22.8 µM
TGI [25]: 44.9 µM
TGI [26]: 23.9 µM
TGI [27]: 31.9 µM
TGI [28]: 16.8 µM
TGI [29]: 20.3 µM
TGI [30]: 29.4 µM
TGI [31]: 3.91 µM
TGI [32]: 4.84 µM
TGI [33]: 32.4 µM
TGI [34]: 13.3 µM
TGI [35]: 21.2 µM
TGI [36]: 24 µM
TGI [37]: 25.5 µM
TGI [38]: 19.8 µM
TGI [39]: 5.66 µM
TGI [40]: 18 µM
TGI [41]: 23 µM
TGI [42]: 24 µM
TGI [43]: 14.6 µM
TGI [44]: 21.8 µM
TGI [45]: 23 µM
TGI [46]: 27.9 µM
TGI [47]: 35.3 µM
TGI [48]: 20.9 µM
TGI [49]: 22.8 µM
TGI [50]: 36.9 µM
TGI [51]: 51.6 µM
TGI [52]: 21.7 µM
TGI [53]: 21.1 µM
TGI [54]: 29.1 µM
TGI [55]: 20 µM
TGI [56]: 20.7 µM
TGI [57]: 27.7 µM
TGI [58]: 25 µM
TGI [59]: 15.1 µM

O=c1ccn(CC2(CO)CCC2)c(=O)[nH]1
TGI [1]: > 100 µM
TGI [2]: > 100 µM
TGI [3]: > 100 µM
TGI [4]: > 100 µM
TGI [5]: > 100 µM
TGI [6]: > 100 µM
TGI [7]: > 100 µM
TGI [8]: > 100 µM
TGI [9]: > 100 µM
TGI [10]: > 100 µM
TGI [11]: > 100 µM
TGI [12]: > 100 µM
TGI [13]: > 100 µM
TGI [14]: > 100 µM
TGI [15]: > 100 µM
TGI [16]: > 100 µM
TGI [17]: > 100 µM
TGI [18]: > 100 µM
TGI [19]: > 100 µM
TGI [20]: > 100 µM
TGI [21]: > 100 µM
TGI [22]: > 100 µM
TGI [23]: > 100 µM
TGI [24]: > 100 µM
TGI [25]: > 100 µM
TGI [26]: > 100 µM
TGI [27]: > 100 µM
TGI [28]: > 100 µM
TGI [29]: > 100 µM
TGI [30]: > 100 µM
TGI [31]: > 100 µM
TGI [32]: > 100 µM
TGI [33]: > 100 µM
TGI [34]: > 100 µM
TGI [35]: > 100 µM
TGI [36]: > 100 µM
TGI [37]: > 100 µM
TGI [38]: > 100 µM
TGI [39]: > 100 µM
TGI [40]: > 100 µM
TGI [42]: > 100 µM
TGI [43]: > 100 µM
TGI [44]: > 100 µM
TGI [45]: > 100 µM
TGI [47]: > 100 µM
TGI [48]: > 100 µM
TGI [49]: > 100 µM
TGI [50]: > 100 µM
TGI [51]: > 100 µM
TGI [52]: > 100 µM
TGI [53]: > 100 µM
TGI [54]: > 100 µM
TGI [55]: > 100 µM
TGI [56]: > 100 µM
TGI [57]: > 100 µM
TGI [58]: > 100 µM
TGI [59]: > 100 µM
